# Data: US8986687B2, “Compounds inhibiting CD95 signaling for the treatment of pancreatic cancer” (Deutsches Krebsforschungszentrum, priority 2009, dated 2015)
# Tested on: ERK pathway / phosphorylation of ERK
# Assay: Western blotting of ERK phosphorylation in pancreatic cells
# Type: cell-based
# Settings: PANC1 and Colo357 cells
# Source text: Phosphorylation of AKT and ERK is shown in PanD3, PANC1 and Colo357 cells upon treatment with different concentrations of CD95L-T4 at the indicated time points. P: phosphorylated; T: total.
# A) Effect of the PI3K and MEK inhibitors (LY2940092 and PD98059 respectively) on CD95-induced phosphorylation of AKT and ERK is shown in PANC1 and Colo357. Inhibition of PI3K enhances ERK phosphorylation. P: phosphorylated; T: total.
# It has been known that low concentrations of CD95L are sufficient to efficiently stimulate the non-apoptotic pathways downstream of CD95, being those pathways inhibited by higher concentrations. […]
# Knockdown experiments were performed by transient transfection with Lipofectamine 2000™ (Invitrogen Life Technologies) following the instruction manual. […] After transient transfection with the different siRNAs cells were cultured for 72 h before treated with CD95LT4 (20 ng/ml), migration was analyzed 36 h after treatment with a two dimensional migration assay. Knockdown efficiency was controlled by quantitative real-time PCR.
# Proteins were transferred from polyacrylamide gels to nitrocellulose membranes by electroblotting. […] The HRP signal was detected by incubation with ECL solution and consecutive exposure to Amersham Hyperfim X-ray films Protein extraction and immunoblotting was performed as previously described. […]
compound,measurement,value
O=c1cc(N2CCOCC2)oc2c(-c3ccccc3)cccc12 [LY2940092],effect of PI3K inhibition on CD95-induced ERK phosphorylation,enhances
